Reference: patent US9227923B2, “Pesticidal carboxamides” (Bayer Intellectual Property GmbH, priority 2009, dated 2016)

Assays:
Assay type in all cases: in vivo
[1] = test system: Tobacco Cutworm (Spodoptera litura) Larvae; test: Test against tobacco cutworm (Spodoptera litura) larvae, leaf dip; settings: active compound concentration of 100 ppm; third instar larvae; after 7 days
Outline: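 Sweet potato leaves were dipped in the test solution (DMF solvent, polyoxyethylene alkyl phenyl ether emulsifier), air-dried and offered to ten third-instar larvae per dish at 25 °C, with fresh leaves added on days 2 and 4. Mortality was counted at day 7 and expressed as % insecticidal activity (100% = all dead).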

[2] = test system: Two-Spotted Spider Mite (Tetranychus Urticae); test: Test against two-spotted spider mite (Tetranychus urticae), spray; settings: active compound concentration of 100 ppm; adult mites; after 7 days
Description: (§1) Solvent: 3 parts by weight of dimethylformamide
(§2) Emulsifier: 1 part by weight of polyoxyethylene alkyl phenyl ether

[3] = test system: Cucurbit Leaf Beetle (Aulacophora Femoralis); test: Test against cucurbit leaf beetle (Aulacophora femoralis), leaf dip; settings: active compound concentration of 100 ppm; second instar larvae; after 7 days
Experimental: as §1, §2
Leaves of cucumber were immersed in the test solution at the appropriate concentration, and the leaves were dried in air. The leaves were then put in a plastic cup containing sterilized black soil and five Aulacophora femoralis at second instar larvae were released in the cup. The cups were placed in a temperature-controlled chamber at 25° C. After 7 days, the number of dead larvae was counted, and thus the insecticidal activity was calculated. An insecticidal activity of 100% means that all larvae were killed, whereas an insecticidal activity of 0% means that no larva was killed.

Row | SMILES | insecticidal activity [1] | acaricidal activity [2] | insecticidal activity [3]
1 | CC(=O)NCc1ccc(C(=O)Nc2c(Cl)cc(C(F)(C(F)(F)F)C(F)(F)C(F)(F)F)cc2Cl)cc1Cl (racemic) [Compound 5-242] | 100% | 100% | 100%
2 | CCC(=O)NCc1ccc(C(=O)Nc2c(Cl)cc(C(F)(C(F)(F)F)C(F)(F)C(F)(F)F)cc2Cl)cc1Cl (racemic) [Compound 5-243] | 100% | 100% | 100%
3 | O=C(CC(F)(F)F)NCc1ccc(C(=O)Nc2c(Cl)cc(C(F)(C(F)(F)F)C(F)(F)C(F)(F)F)cc2Cl)cc1Cl (racemic) [Compound 5-244] | 100% | 100% | 100%
4 | CCc1cc(C(F)(C(F)(F)F)C(F)(F)F)cc(C)c1NC(=O)c1ccc(CNC(=O)C2CC2)cc1 [Compound 5-30] | 100% | 100% | 100%
5 | CCc1cc(C(F)(C(F)(F)F)C(F)(F)F)cc(C)c1NC(=O)c1ccc(CNC(=O)c2ccc(F)cc2)cc1 [Compound 5-36] | 100% | 100% | 100%
6 | CCc1cc(C(F)(C(F)(F)F)C(F)(F)F)cc(C)c1NC(=O)c1ccc(CNC(=O)c2cccnc2F)cc1 [Compound 5-40] |  | 100% | 100%
7 | CCc1cc(C(F)(C(F)(F)F)C(F)(F)F)cc(C)c1NC(=O)c1ccc(CNC(=O)c2cccnc2Cl)cc1 [Compound 5-41] | 100% | 100% | 100%
8 | CCc1cc(C(F)(C(F)(F)F)C(F)(F)F)cc(C)c1NC(=O)c1ccc(CNC(C)=O)cc1F [Compound 5-44] |  | 100% | 100%
9 | CCc1cc(C(F)(C(F)(F)F)C(F)(F)F)cc(C)c1NC(=O)c1cc(F)c(CNC(C)=O)cc1F [Compound 5-58] | 100% | 100% | 100%
10 | CCc1cc(C(F)(C(F)(F)F)C(F)(F)F)cc(C)c1NC(=O)c1cc(F)c(CNC(=O)CC2CC2)cc1F [Compound 5-61] | 100% | 100% | 100%
11 | CCc1cc(C(F)(C(F)(F)F)C(F)(F)F)cc(C)c1NC(=O)c1cc(F)c(CNC(=O)CC(F)(F)F)cc1F [Compound 5-62] | 100% | 100% | 100%
12 | CCc1cc(C(F)(C(F)(F)F)C(F)(F)F)cc(C)c1NC(=O)c1ccc(CNC(C)=O)c(Cl)c1 [Compound 5-77] | 100% | 100% | 100%
13 | CCC(=O)NCc1ccc(C(=O)Nc2c(C)cc(C(F)(C(F)(F)F)C(F)(F)F)cc2CC)cc1Cl [Compound 5-78] | 100% | 100% | 100%
14 | CCc1cc(C(F)(C(F)(F)F)C(F)(F)F)cc(C)c1NC(=O)c1ccc(CNC(=O)CC(F)(F)F)c(Cl)c1 [Compound 5-81] | 100% | 100% | 100%
15 | CCc1cc(C(F)(C(F)(F)F)C(F)(F)F)cc(C)c1NC(=O)c1ccc(CNC(C)=O)c(Br)c1 [Compound 5-85] | 100% | 100% | 100%
16 | CCC(=O)NCc1ccc(C(=O)Nc2c(C)cc(C(F)(C(F)(F)F)C(F)(F)F)cc2CC)cc1Br [Compound 5-86] | 100% | 100% | 100%
17 | CCc1cc(C(F)(C(F)(F)F)C(F)(F)F)cc(C)c1NC(=O)c1ccc(CNC(=O)CC(F)(F)F)c(Br)c1 [Compound 5-89] | 100% | 100% | 100%
18 | CCc1cc(C(F)(C(F)(F)F)C(F)(F)F)cc(C)c1NC(=O)c1ccc(CNC(=O)c2cccnc2F)c(Br)c1 [Compound 5-93] | 100% | 100% | 100%
19 | CCc1cc(C(F)(C(F)(F)F)C(F)(F)F)cc(C)c1NC(=O)c1ccc(CNC(=O)c2cccnc2F)c(C)c1 [Compound 5-103] | 100% | 100% | 100%
20 | CCc1cc(C(F)(C(F)(F)F)C(F)(F)C(F)(F)F)cc(C)c1NC(=O)c1ccc(CNC(=O)CC(F)(F)F)c(F)c1 (stereo not drawn) [Compound 5-148] | 100% | 100% | 100%
21 | CCc1cc(C(F)(C(F)(F)F)C(F)(F)C(F)(F)F)cc(C)c1NC(=O)c1ccc(CNC(C)=O)c(Cl)c1 (stereo not drawn) [Compound 5-150] | 100% | 100% | 100%

Row | SMILES | insecticidal activity [1] | acaricidal activity [2] | insecticidal activity [3]
22 | CCC(=O)NCc1ccc(C(=O)Nc2c(C)cc(C(F)(C(F)(F)F)C(F)(F)C(F)(F)F)cc2CC)cc1Cl (stereo not drawn) [Compound 5-151] | 100% | 100% | 100%
23 | CCc1cc(C(F)(C(F)(F)F)C(F)(F)C(F)(F)F)cc(C)c1NC(=O)c1ccc(CNC(=O)CC(F)(F)F)c(Cl)c1 (stereo not drawn) [Compound 5-154] | 100% | 100% | 100%
24 | CCc1cc(C(F)(C(F)(F)F)C(F)(F)C(F)(F)F)cc(C)c1NC(=O)c1ccc(CNC(=O)c2cccnc2F)c(Cl)c1 (stereo not drawn) [Compound 5-155] | 100% | 100% | 100%
25 | CCc1cc(C(F)(C(F)(F)F)C(F)(F)C(F)(F)F)cc(C)c1NC(=O)c1ccc(CNC(C)=O)c(Br)c1 (stereo not drawn) [Compound 5-157] | 100% | 100% | 100%
26 | CCc1cc(C(F)(C(F)(F)F)C(F)(F)C(F)(F)F)cc(C)c1NC(=O)c1ccc(CNC(=O)c2cccnc2Cl)c(Br)c1 (stereo not drawn) [Compound 5-175] | 100% | 100% | 100%
27 | CCc1cc(C(F)(C(F)(F)F)C(F)(F)F)cc(C)c1NC(=O)c1ccc(CNC(=O)CC(F)(F)F)c(I)c1 [Compound 5-192] | 100% | 100% | 
28 | Cc1cc(C(F)(C(F)(F)F)C(F)(F)C(F)(F)F)cc(C)c1NC(=O)c1ccc(CNC(=O)CC(F)(F)F)c(F)c1F (stereo not drawn) [Compound 5-213] | 100% | 100% | 100%
29 | CCc1cc(C(F)(C(F)(F)F)C(F)(F)Br)cc(C)c1NC(=O)c1ccc(CNC(C)=O)c(Cl)c1 (stereo not drawn) [Compound 5-219] | 100% | 100% | 100%
30 | CCC(=O)NCc1ccc(C(=O)Nc2c(C)cc(C(F)(C(F)(F)F)C(F)(F)Br)cc2CC)cc1Cl (stereo not drawn) [Compound 5-220] | 100% | 100% | 100%
31 | CCc1cc(C(F)(C(F)(F)F)C(F)(F)Br)cc(C)c1NC(=O)c1ccc(CNC(=O)CC(F)(F)F)c(Cl)c1 (stereo not drawn) [Compound 5-221] | 100% | 100% | 100%
32 | CCC(=O)NCc1ccc(C(=O)Nc2c(Cl)cc(C(F)(C(F)(F)F)C(F)(F)F)cc2Cl)cc1 [Compound 5-224] |  | 100% | 100%
33 | O=C(CC1CC1)NCc1ccc(C(=O)Nc2c(Cl)cc(C(F)(C(F)(F)F)C(F)(F)F)cc2Cl)cc1 [Compound 5-225] | 100% | 100% | 100%
34 | CC(=O)NCc1ccc(C(=O)Nc2c(C)cc(C(F)(C(F)(F)F)C(F)(F)F)cc2OC(F)F)cc1Cl [Compound 5-294] | 100% | 100% | 100%
35 | CCC(=O)NCc1ccc(C(=O)Nc2c(C)cc(C(F)(C(F)(F)F)C(F)(F)F)cc2OC(F)F)cc1Cl [Compound 5-295] | 100% | 100% | 100%
36 | Cc1cc(C(F)(C(F)(F)F)C(F)(F)F)cc(OC(F)F)c1NC(=O)c1ccc(CNC(=O)CC(F)(F)F)c(Cl)c1 [Compound 5-296] | 100% | 100% | 100%
37 | CCc1cc(C(F)(C(F)(F)F)C(F)(F)Br)cc(C)c1NC(=O)c1ccc(CNC(=O)CC2CC2)c(Cl)c1 (stereo not drawn) [Compound 5-319] | 100% | 100% | 
38 | Cc1cc(C(F)(C(F)(F)F)C(F)(F)F)cc(OC(F)F)c1NC(=O)c1ccc(CNC(=O)CC2CC2)c(Cl)c1 [Compound 5-340] | 100% | 100% | 
39 | CCc1cc(C(F)(C(F)(F)F)C(F)(F)F)cc(C)c1NC(=O)c1ccc2c(c1)CCC2NC(=O)CC1CC1 (stereo not drawn) [Compound 10-5] | 100% | 100% | 
40 | CCC(=O)NC1CCc2cc(C(=O)Nc3c(C)cc(C(F)(C(F)(F)F)C(F)(F)C(F)(F)F)cc3CC)ccc21 (stereo not drawn) [Compound 10-10] | 100% | 100% | 
41 | CCc1cc(C(F)(C(F)(F)F)C(F)(F)F)cc(C)c1NC(=O)c1ccc2c(c1)CCCC2NC(C)=O (stereo not drawn) [Compound 11-2] | 100% | 100% | 
